From patent US12673918B2, “Small molecule RPN13 inhibitors with antitumor properties” (The Johns Hopkins University, priority 2019, dated 2026) come the findings set out here.

One data set deals with HCC1395. Description: MTT cytotoxicity assay, HCC1395. To be noted: Homo sapiens, HCC1395, read-out: cytotoxicity IC50 HCC1395.
Another data set has as its system UWB1.289. The data set can be described thus: MTT cytotoxicity assay, UWB1.289. To be noted: UWB1289, read-out: cytotoxicity IC50 UWB1.289.
A further data set has as its system SSC90. The data set can be described thus: MTT cytotoxicity assay, SSC90.
Another data set deals with VU93. Description: MTT cytotoxicity assay, VU93. As to conditions: read-out: cytotoxicity IC50 VU93, Tables 3A/4B/4C.
Data set [1] deals with proteasome (4UbFL reporter). Description: 4UbFL reporter in leg muscle of CD1 mice. The data set is classed as in vivo. As for the experimental part:
Pilot safety studies were performed in CD1 mice (n=3/dose group of healthy female mice aged 6-8 weeks) with increasing single doses delivered i.p. and the NOAEL (no-observed-adverse-effect level) was selected for further animal studies. […] Bortezomib was dissolved in a minimal amount of DMSO and further diluted with saline before injection in a dose finding study. […] To measure on-target inhibition of proteasome activity in mice, a leg muscle of CD-1 mice was transduced with the 4UbFL reporter construct. […] Briefly, mouse leg muscle was electroporated with 4UbFL plasmid and basal bioluminescence was measured after 24 hr using IVIS200 imager after injecting luciferin substrate. Mice were randomized (n=5/group) and treated with compounds in PEG400: Cremophor: Tween40 combination or vehicle alone as shown in Table 5 with one dose delivered by intraperitoneal injection. The mice were again imaged at 4 h, 24 h, 48 h post treatment.

In a further data set the test system is PEA1. The data set can be described thus: cells. As to conditions: read-out: cytotoxicity IC50 PEA1.
The test system of another data set is MCF7. The data set can be described thus: MTT cytotoxicity assay, MCF7. As to conditions: read-out: cytotoxicity IC50 MCF7, Tables 3A/4B/4C.
Data set [2] relates to proteasome (4UbFL reporter). The data set can be described thus: 4UbFL reporter, ES2 cells stably expressing 4UbFL. It counts as cell-based, human. As to conditions: ES2 stably expressing 4UbFL, 4 h. From the text: FIG. 14B illustrates fold increase in bioluminiscence of ES2 cells stably expressing 4UbFL at 4 hrs post-treatment of compounds, as measured by luminometer.
Next examined was the effect of compounds on proteasome function using a DNA construct that expresses a reporter gene comprising firefly luciferase fused to four molecules of ubiquitin (4UbFL) at its amino terminus (41). The 4UbFL is rapidly degraded by active proteasomes, resulting in a low level of enzymic activity and bioluminescence. Upon proteasome inhibition, increased 4UbFL activity can be measured by luminescence assay using luciferin as a substrate as the protein is stabilized.

In a further data set the test system is TOV21G. Description: MTT cytotoxicity assay, TOV21G.
The next data set relates to ES2. The data set can be described thus: MTT cytotoxicity assay, ES2.
The test system of data set [3] is HeLa. The data set can be described thus: MTT cytotoxicity assay, HeLa. As to conditions: read-out: cytotoxicity IC50 HeLa, Tables 3A/4B/4C.
Data set [4] is described as follows: MTT cytotoxicity assay, RPE1. As to conditions: human.
Method: (§1) Cell lines and cytotoxicity assays: All cell lines were obtained from the American Type Culture Collection (ATCC) and cultured in the specified medium supplemented with 10% fetal bovine serum, 100 IU/mL penicillin, and 100 μg/mL streptomycin at 37° C. in a humidified 5% CO2/95% air incubator. […] To assess drug cytotoxicity, cells were seeded at 2,500 cells/well (10,000 cells/well for MM lines) in 100 μL medium in 96-well plate and after 24 treated with compounds for 72 h, incubated according to the manufacturer's protocol with the Thiazolyl Blue Tetrazolium Bromide (Sigma, M2128) and A570 measured using a Benchmark Plus microplate spectrophotometer (BIO-RAD). IC50 data was analyzed by Graphpad Prism software. In the chirality studies the cells were treated with compounds for 48 h, and the cells were incubated and measured via the preceeding protocols.
Another data set relates to ID8-VegfDefb29 tumor. The data set can be described thus: in vivo. The data set is classed as in vivo, C57BL/6 mice. As for the experimental part: To assess therapeutic efficacy the ID8-VegfDefb29 cell line was utilized in a syngeneic mouse model of ovarian cancer expressing luciferase (62). ID8 was first derived from spontaneous malignant transformation of C57BL/6 mouse ovarian surface epithelial cells in vitro (69). ID8-Vegf Defb29 cells represent a more aggressive variant of ovarian cancer in which VEGF provides vascular growth which is augmented by the presence of DEFB29 (62). C57BL/6 mice were injected i.p. with ID8-VegfDefb29 cells stably expressing firefly luciferase (0.5×10^6 cells) in PBS (100 μL). After 72 hrs, mice were imaged for their basal luminescence levels using an IVIS200 imager. Mice with visible luminescence were randomized into equal groups including vehicle (n=8), RA414 (3 mg/Kg, n=8), RA414 (10 mg/Kg, n=8) and treated every three days for up to 3 weeks. Mice were imaged every week to measure bioluminescence expressed by tumor after administration of luciferin. […] On day 24 two mice were sacrificed after collection of ascites, and the remainder required euthanasia on day 31 (FIGS. 17A and 17B). Administration of RA414 at 10 mg/kg (3 doses delivered every three days) regressed the tumor completely in 50% of the mice with less than 10% weight loss. […] This is consistent with proteasome inhibition within the ascites cells by the […] RA414 treatment regimen.
Tumor Studies: Female C57BL6 or Nude mice were inoculated with 10^6 ES2-Luciferase cells i.p. in 100 uL PBC, or ID8-VegfDefb29 syngeneic mouse model of ovarian cancer expressing luciferase (62) i.p. in 100 μL PBS. At day 3, mice were imaged for basal level luminescence activity with a Xenogen IVIS 200 after injection i.p. with luciferin (0.3 mg in 100 water). Mice were randomized into two groups (n=8) and treated i.p. with compounds or vehicle (25% (w/v) β-Hydroxypropylcyclodextrin in water), and imaged again on days 7 and 14. RA375 was administered i.p. at 10 mg/Kg.

In the next data set the test system is MDA-MB-468. Description: cells. As to conditions: Homo sapiens, MDA-MB-468, read-out: cytotoxicity IC50 MDA-MB-468.
Another data set is described as follows: in vitro. As to conditions: human.
In a further data set the test system is HCT116 ARID1A^-/-. The data set can be described thus: MTT cytotoxicity assay, HCT116 ARID1A knockout. To be noted: for IC50: Homo sapiens, read-out: IC50 HCT116 ARID1A^-/-. The data set is classed as cell-based, human. From the text: Loss of ARID1A function is a common driver of ovarian and some other cancer types, and it confers vulnerability to inhibition of GSH (36).

For another data set, the system named is RPMI8226. Description: MTT cytotoxicity assay, RPMI8226. To be noted: Homo sapiens, read-out: IC50 RPMI8226. The data set is classed as cell-based.
The test system of data set [5] is HeLa. As to conditions: human.
Another data set concerns OV2008. The data set can be described thus: MTT cytotoxicity assay, OV2008. As to conditions: read-out: cytotoxicity IC50 OV2008.
[6] abbreviates: read-out: cytotoxicity IC50 SSC90, Tables 3A/4B/4C, MTT assay.
The mark [7] stands for this setting: read-out: cytotoxicity IC50 TOV21G, Tables 3A/4B/4C, MTT assay.
The mark [8] stands for this setting: read-out: cytotoxicity IC50 ES2, Tables 3A/4B/4C, MTT assay.
Where [9] appears, read: 3 mg/Kg, 9 doses delivered every three days.
Setting [10] is: HCT-116, Table 3, MTT, 48 hr, Colon.
The mark [11] stands for this setting: read-out: IC50 TOV21G, Table 3, MTT, 48 hr, Ovarian.

Where two headings read alike, the source gives them in different places. Bounds are passed on as bounds.

Method for MDA-MB-468: as §1
Method for OV2008: as §1
Method for PEA1: as §1
Method for RPMI8226: The cytotoxic efficacy of selected compounds was assessed against multiple myeloma (MM) cell lines, as this is a validated clinical target for the licensed proteasome inhibitors.
Cell lines and cytotoxicity assays: All cell lines were obtained from the American Type Culture Collection (ATCC) and cultured in the specified medium supplemented with 10% fetal bovine serum, 100 IU/mL penicillin, and 100 μg/mL streptomycin at 37° C. in a humidified 5% CO2/95% air incubator. […] To assess drug cytotoxicity, cells were seeded at 2,500 cells/well (10,000 cells/well for MM lines) in 100 μL medium in 96-well plate and after 24 treated with compounds for 72 h, incubated according to the manufacturer's protocol with the Thiazolyl Blue Tetrazolium Bromide (Sigma, M2128) and A570 measured using a Benchmark Plus microplate spectrophotometer (BIO-RAD). IC50 data was analyzed by Graphpad Prism software.
Method for UWB1.289: as §1
Method for in vitro: as §1

As for `CC1/C(=C\c2ccc([N+](=O)[O-])cc2)C(=O)/C(=C/c2ccc([N+](=O)[O-])cc2)CN1C(=O)[C@H](Cc1ccccc1)NC(=O)CCl` (stereo partly shown) [RA414], the IC50 was less than 15 nM in the data set with HCC1395; less than 20 nM in the data set on UWB1.289; less than 20 nM in the data set with SSC90 (setting [6]); 40 nM with VU93; 30 nM in the data set with PEA1; 75 nM with MCF7. Also, the IC50 in the data set on TOV21G (setting [7]) was 1.1 nM; with ES2 (setting [8]), 7.5 nM; with HeLa [3], 3 nM; in [4], less than 40 nM; with MDA-MB-468, less than 20 nM. Moreover, in [1] (CD1 mice, 3 mg/kg i.p., PEG system), the “duration of on-target activity (4UbFL, leg muscle)” value is reported as “on-target activity over 72 hr similar to bortezomib”. In data set [2], the 4UbFL bioluminescence result is on record as “increased bioluminescence in a dose dependent manner”. Further, the tolerability result in the data set with ID8-VegfDefb29 tumor (setting [9]) was “well tolerated”. The tumor growth entry in the data set with ID8-VegfDefb29 tumor (setting [9]) is on record as “inhibited tumor growth”. In addition, the “mice with tumor regressed completely” value in the data set with ID8-VegfDefb29 tumor (10 mg/kg, 3 doses delivered every three days) was found to be 50%. For the same molecule, the “mice that did not tolerate the dose (>10% weight loss) or died” value in the data set with ID8-VegfDefb29 tumor (10 mg/kg, 3 doses delivered every three days, tumor-bearing mice) is 50%.

With `O=C(CCl)N[C@@H](Cc1ccccc1)C(=O)N1C/C(=C\c2ccc([N+](=O)[O-])cc2)C(=O)/C(=C/c2ccc([N+](=O)[O-])cc2)C1` [RA375], the IC50 in the data set “in vitro” was determined as 41 nM; with SSC90 (read-out: IC50 SSC90), 24 nM; in the data set on HCT116 ARID1A^-/- (HCT-116, 48 h), 20 nM; with RPMI8226 (RPMI-8226, 48 h) it was 9 nM; in the data set on TOV21G (read-out: IC50 TOV21G), 6 nM; in the data set with ES2 (read-out: IC50 ES2), 19 nM. The molecule further registered an IC50 in the data set on HeLa [5] of 13 nM. Moreover, the “fold less sensitive: parental HCT116 vs isogenic ARID1A knockout” value with HCT116 ARID1A^-/- is listed as 4 fold.

For `C[C@H]1/C(=C\c2ccc([N+](=O)[O-])cc2)C(=O)/C(=C/c2ccc([N+](=O)[O-])cc2)CN1C(=O)[C@@H](N)Cc1ccccc1`, the IC50 turned out to be 41 nM in the data set “in vitro”; 75 nM in the data set with HCC1395; 40 nM in the data set on OV2008; 43.9 nM in the data set on UWB1.289; 70 nM in the data set with PEA1; 3.6 nM in the data set on TOV21G (setting [7]). In addition, the IC50 in the data set with ES2 (setting [8]) was 40 nM; with HeLa [5] it was 23 nM; in the data set on MDA-MB-468, 75 nM. Further, the “fold increased bioluminescence (4UbFL, leg muscle)” value in data set [1] (CD1 mice, 30 mg/kg i.p., PEG400: Cremophor: Tween40, at 4 h and 24 h) was 4-6 fold; in data set [1] (mouse, in vivo, ip, 30 mg/kg) it was 14-22 fold. Also, in data set [2], the 4UbFL bioluminescence entry is given as “increased bioluminescence in a dose dependent manner”. For the same molecule, in the data set on ID8-VegfDefb29 tumor (15 mg/Kg every 3 days, total 5 doses, day 17, p<0.0001), the “tumor burden compared to vehicle” value is reported as “significant decrease in tumor burden”.

With `CC(C)C[C@H](NC(=O)[C@H](Cc1ccccc1)NC(=O)c1cnccn1)B(O)O` [Bortezomib, bortezomib, reference compound], the IC50 with SSC90 (setting [6]) was 15 nM; in the data set on PEA1, 30 nM; with HCT116 ARID1A^-/- (setting [10]), 2.8 nM; in the data set with HeLa [3] it was 3 nM; in data set [4] (RPE1 cells), 3.5 nM.

For `N[C@@H](Cc1ccccc1)C(=O)N1C/C(=C\c2ccc([N+](=O)[O-])cc2)C(=O)/C(=C/c2ccc([N+](=O)[O-])cc2)C1` [RA183, reference compound], the IC50 was found to be 80 nM with OV2008; 155 nM with HCT116 ARID1A^-/- (HCT-116, 48 h); 88 nM in the data set with RPMI8226 (RPMI-8226, 48 h); 44 nM in the data set on TOV21G (setting [11]); 53 nM with TOV21G (setting [7]); 75 nM in the data set with ES2 (read-out: IC50 ES2, Table 3, MTT, 48 hr, Ovarian). The IC50 in the data set with ES2 (setting [8]) is 75 nM; in the data set with HeLa [3], 112 nM; with MDA-MB-468, 250 nM.

On to `N[C@@H](Cc1ccccc1)C(=O)N1C/C(=C\c2ccc(Cl)c(Cl)c2)C(=O)/C(=C/c2ccc(Cl)c(Cl)c2)C1` [RA190, reference compound], for which the IC50 in the data set on HCC1395 came to 0.35 nM; in the data set on SSC90 (setting [6]) it was 625 nM; in the data set on VU93 it was 625 nM; in the data set on PEA1, 386 nM; with MCF7 it was 750 nM; in the data set on HCT116 ARID1A^-/- (setting [10]) it was 164 nM. Besides, the IC50 in the data set on RPMI8226 (RPMI-8226, Table 3, MTT, 48 hr, Multiple Myeloma) came out at 45 nM; in the data set with TOV21G (setting [11]) it was 83 nM; in the data set with TOV21G (setting [7]), 148 nM; in the data set on ES2 (setting [8]), 115 nM; in the data set with HeLa [3], 85 nM; with MDA-MB-468, 300 nM.
